Data: patent US6521431B1, “Biodegradable cross-linkers having a polyacid connected to reactive groups for cross-linking polymer filaments” (Access Pharmaceuticals, Inc., priority 1999, dated 2003)
Where two headings read alike, the source gives them in different places. One block for each compound: values may come before it.

Columns and labels:
[1] = Release of labeled macromolecule and labeled polymer backbone from degrading gel network; assay type: physicochemical; settings: pH 7.3, 37° C., monitored at 550 nm (FIG. 7)
Text: Gels were formed by the same method as above, but in this case other compounds were included during the preparation of the gels to study the release of small molecules from the network. In one case, the network itself was labeled with a polymerizable derivative of tetramethyl rhodamine (TMRAHMAm) in order to show the release (degradation) of the network itself (see FIG. 6). In the other case fluorescent rhodamine labeled albumin (Molecular Probes, Eugene Oreg.) was included in the uncharged network to show diffusive release of a macromolecule from the network (see FIG. 7).
To a 3 mL test tube was charged TMRAHMAm (3.0 mg, 5.0 μmol; 30 μL of a 100 mg/mL solution in CHCl3) which was then placed under a 7 mtorr vacuum for 3 hours. […]
Gels were suspended in buffers of different pH's: All buffers were adjusted to the same ionic strength. The release of the rhodamine labeled albumin and the rhodamine labeled HPMA was monitored at 550 nm. 750 μL of the sample was removed from the vial and periodically measured on a spectrophotometer. […]
The examination of the release of macromolecules entrained in the polymer network provides another way to study the performance of these materials. […] Moreover, the release of a model macromolecular solute (TMRA-albumin, molecular weight of ^˜66,000 Da.) from the network is measured spectrophotometrically.

[2] = pH 7.3
Procedure: (§1) The gels in this section were made at a mole feed ratio of 1.5 mole % cross-linker, as a copolymer with 98.5 mole % HPMA. Before the gels were polymerized, three 1.0 mL plastic syringes to be used as a slab gel template were silylanized by briefly incubating them in a heptane solution containing Sigmacote and oven drying at 90° C.
(§2) The wire was held in place by a septa which was placed over the tip of the syringe, as the solution polymerized. This formed a hole in the center of the cylinder, which was later used as a place to insert a wire hanger for the initially brittle and finally fragile gel, in order to measure its swelling and degradation kinetics as a change of mass with time. Gelation occurred within one to five minutes and the syringe was allowed to sit for 4 hours at room temperature. At this point the wire was removed from the center of the solid and the end of the plastic syringe was removed with a razor blade. The plunger was then used to extrude the gel from the syringe in 100 μL increments which were cut into small cylinders as they hung out from the end of the syringe. The gels were then placed on tarred wire holders and the initial mass of the assembly was determined. The resulting clear isotropic gels had the composition of poly(HPMA-co-HPMAGlySuc) 98.5:1.5. The gels were then incubated in pH 5, 100 mM sodium acetate buffer for 24 hours. They were then charged into vials of differing pH to study the degradation kinetics.
(§3) The gels were placed in 15 mL vials containing 10 mL of buffers. The masses of wire holders were determined before the gels were placed on them. The original mass of the gel in its relaxed state was also known by subtraction from the total mass of the assembly. The original dry mass of the gel was determined by drying three gels in their relaxed state from each composition and determining the dry mass of the gel. These values were then used to calculate the inverse of the volume fraction of polymer in the gel (Qv) respectively, using the densities of the polymer and water. The incubation solutions were changed each time the gel was weighed. The gels were incubated in a gyratory water-bath shaker (New Brunswick Scientific, New Brunswick, N.J.). The temperature was regulated to be 37±2° C. and the shaker was set to 30 rotations per minute.
(§4) The property of the change of volume of the polymer network can be measured by weighing the gel at different time points.
(§5) Since the swelling is related to network cross-link density by weighing the macroscopic gels at various times throughout their swelling one can obtain information about the change in cross-link density and thus the rate of degradation.

[3] = Swelling of acrylic acid / cross-linker water absorbent gel in PBS; assay type: physicochemical; settings: acrylic acid gel cross-linked with HPMAGlySuc, after incubating in PBS pH 7.4 for 3 days
Procedure: To a 5 mL test tube was charged acrylic acid (675 μL, 9.85 mmol), water (1120 μL) and HPMAGlySuc (73 mg, 0.15 mmol) (5b). The cross-linker was weighed into the mixture as described earlier. The mixture was homogenized and APS was added (66.6 μL, […]) from a 2.43 M solution in water. This solution was again mixed. To this solution was added TMED (137 μL, 0.287 mmol) from a 2.10 M pH 7.0 solution in water. The mixture was vortexed rapidly for 15 seconds and the polymerizing solution was charged into two 1.0 mL syringes that acted as a mold for the polymerization. The syringes were allowed to sit for four hours. The gel was removed from the syringe and cut into pieces (^˜100 μL cylinders). The mass of the cylinder was recorded and placed in a 20 mL vial containing 18 mL of PBS at pH 7.4. The gels were incubated overnight with buffer. The next day the buffer was changed twice in order to keep a constant external pH as the gel was charged. After incubating in PBS for 3 days the gel has swollen with water to approximately 20 times the total initial polymer volume.

[4] = Degradation (degradative swelling) of HPMA-co-cross-linker hydrogels in buffer; settings: HPMA-co-XL gels, 1.5 mole % cross-linker, pH 7.3 buffer, 37° C.
Procedure: as §1, §2, §3, §4, §5

degradation / hydrolysis and swelling kinetics of the gel (in words) [2]: fastest hydrolysis and swelling kinetics
time to complete degradation of the gel [2]: about 5 days
Structure (SMILES): C=C(C)C(=O)NCC(C)OC(=O)COC(=O)COC(=O)CCC(=O)OCC(=O)OCC(=O)OC(C)CNC(=O)C(=C)C (stereo not shown) [HPMAGlyGlySuc, di[({[1-methyl-2-(2-methylprop-2-enoylamino)ethyl]oxycarbon-yl}methyl)oxycarbonyl]methylbutane-1,4-dioate]
release of rhodamine labeled HPMA polymer backbone [1]: largely occurs to the greatest extent at the onset of complete degradation of the polymer
release of rhodamine labeled albumin from the gel network [1]: more closely follows the swelling of the network

Structure (SMILES): C=C(C)C(=O)NCC(C)OC(=O)COC(=O)CCC(=O)OCC(=O)OC(C)CNC(=O)C(=C)C (stereo not shown) [HPMAGlySuc, di{[1-methyl-2-(2-methylprop-2-enoylamino)ethyl]oxycarbonyl}methyl butane-1,4-dioate]
swelling with water relative to total initial polymer volume [3]: approximately 20 times the total initial polymer volume

degradation / hydrolysis and swelling kinetics of the gel (in words) [4]: slower degradation than the glycolic
Structure (SMILES): C=C(C)C(=O)NCC(C)OC(=O)[C@H](C)OC(=O)CCC(=O)O[C@@H](C)C(=O)OC(C)CNC(=O)C(=C)C (stereo partly drawn) [HPMALacSuc, di(1S)-1-{[1-methyl-2-(2-methylprop-2-enoylamino)ethyl]oxycarbonyl}ethyl butane-1,4-dioate]

degradation / hydrolysis and swelling kinetics of the gel (in words) [4]: non-degradable
Structure (SMILES): C=C(C)C(=O)NCC(C)OC(=O)CCC(=O)OC(C)CNC(=O)C(=C)C (stereo not shown) [HPMASuc, bis-1-methyl-2-(2-methylprop-2enoylamino)ethyl-1,4-butanedioate, reference compound]
